What all share (assay type): physicochemical
A short description of data set [1]: Aqueous stability of the compound in 100 mM Na2HPO4 buffer assessed as half life at 2 mM at pH 7.2 at 37 degC by ferric chloride assay.
The nature of data set [2]: Aqueous stability of the compound in 100 mM Na2HPO4 buffer assessed as half life at 2 mM at pH 7.0 at 37 degC by ferric chloride assay.
A short description of data set [3]: Aqueous stability of the compound in 100 mM NaOH buffer at 2 mM at pH 12.7 at 37 degC by ferric chloride assay. The conditions noted are these: pH 12.7, 2000 µM.
Data set [4] is described as follows: Aqueous stability of the compound in 100 mM HCl buffer assessed as half life at 2 mM at pH 1.5 at 37 degC by ferric chloride assay.
Data set [5] is described as follows: Aqueous stability of the compound in 100 mM Na2HPO4 buffer assessed as half life at 2 mM at pH 8.0 at 37 degC by ferric chloride assay.
The nature of data set [6]: Aqueous stability of the compound in 100 mM Na2HPO4 buffer assessed as half life at 2 mM at pH 6.6 at 37 degC by ferric chloride assay.
Data set [7] is described as follows: Aqueous stability of the compound in 100 mM Na2HPO4 buffer assessed as half life at 2 mM at pH 8.5 at 37 degC by ferric chloride assay.

As to `CC(=O)N(O)c1ccc(O)cc1`, the half-life at 2000 µM in data set [1] came out at 0.35 h; in data set [2] it was 1.1 h; in data set [4], 18.3 h; in data set [5], 9.8 min; in data set [6], 2.5 h. In addition, the Stability result in data set [3] was “Stable”.
Take `CC(=O)N(O)c1ccc(OS(=O)(=O)[O-])cc1.[K+]`: the half-life at 2000 µM in data set [7] was determined as 217 h; in data set [4], 15.2 h. The Stability entry in data set [3] was “Stable”.

Usually half-life stands for the time needed for the level to fall by half in the phase considered.

These data come from ChEMBL document CHEMBL3272187, “Synthesis of N-hydroxyacetaminophen, a postulated toxic metabolite of acetaminophen, and its phenolic sulfate conjugate” (J Med Chem, 1978).
